For the experiment, the target named is T1, human PDE9A2 (Homo sapiens, UniProt O76083).
T1 construct: made in house; host or cells: Sf9 insect cells (infected); crude lysate used as enzyme source
As to the kind of experiment: PDE9A2 enzymatic activity assay (scintillation proximity assay, SPA). Format: biochemical. The note with it: for inhibition at 10 µM: read-out: % inhibition of PDE9A2 (at 10 micromolar concentration), 10 micromolar concentration, values above 100% adjusted to 100%; for IC50: reported only as range 1-100 or 101-1200 nanomolar, specific value lies within range, read-out: IC50 within range [nanomolar (nM)]. On the technique in general: Scintillation proximity formats need no separation of bound from free tracer.

T1 sequence (O76083 1-533 isoform O76083-2): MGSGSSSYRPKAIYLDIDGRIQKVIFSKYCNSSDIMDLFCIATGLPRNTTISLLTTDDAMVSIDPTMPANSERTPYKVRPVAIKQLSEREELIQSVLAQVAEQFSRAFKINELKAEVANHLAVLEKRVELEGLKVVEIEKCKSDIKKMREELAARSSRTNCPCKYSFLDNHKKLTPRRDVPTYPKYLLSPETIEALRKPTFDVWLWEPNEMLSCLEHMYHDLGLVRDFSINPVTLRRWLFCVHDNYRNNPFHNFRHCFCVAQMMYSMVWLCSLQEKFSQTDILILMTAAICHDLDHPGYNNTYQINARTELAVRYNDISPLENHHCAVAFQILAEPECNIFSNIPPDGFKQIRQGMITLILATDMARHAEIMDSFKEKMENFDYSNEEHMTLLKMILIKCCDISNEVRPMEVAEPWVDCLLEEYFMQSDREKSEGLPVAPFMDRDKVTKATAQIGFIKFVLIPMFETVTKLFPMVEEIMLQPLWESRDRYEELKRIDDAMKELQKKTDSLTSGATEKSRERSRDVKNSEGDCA

Broadly, the IC50 is the concentration that inhibits the measured activity by half. For the compound `CC(Cc1nc2c(cnn2C2CCOC2)c(=O)[nH]1)C(F)(F)F` (mixture of isomers) [Example 72], the inhibition at 10 µM was found to be 91% and the IC50 was in the range of 101 to 1200 nM.
For `CCC(Cc1nc2c(cnn2C2CCOC2)c(=O)[nH]1)C(F)(F)F` (mixture of isomers) [Example 77], in that order: 89% and 101 to 1200 nM.
On the same counts, the results for `O=c1[nH]c(CC2CCOC2)nc2c1cnn2C1CCOC1` (mixture of isomers) [Example 81] are 78% and 101 to 1200 nM.
Consider `CCC(C)Cc1nc2c(cnn2C2CCOC2)c(=O)[nH]1` (mixture of isomers) [Example 84], for which the inhibition at 10 µM came to 97% and the IC50 lay in the range of 1 to 100 nM.
Consider `CCC(C)Cc1nc2c(cnn2C2CCCOC2)c(=O)[nH]1` (mixture of isomers) [Example 95], for which the inhibition at 10 µM turned out to be 98% and the IC50 lay within 1 to 100 nM.
For `CCC(Cc1nc2c(cnn2C2CCCN(C(C)=O)C2)c(=O)[nH]1)C(F)(F)F` (mixture of isomers) [Example 173], in that order: 86% and 101 to 1200 nM.
For `CCC(Cc1nc2c(cnn2C2CCCN(C(=O)c3ccccc3)C2)c(=O)[nH]1)C(F)(F)F` (mixture of isomers) [Example 174], in that order: 89% and 101 to 1200 nM.
On the same counts, the results for `CCC(Cc1nc2c(cnn2C2CCN(C)C2)c(=O)[nH]1)C(F)(F)F` (mixture of isomers) [Example 213] are 86% and 101 to 1200 nM.
In the case of `O=c1[nH]c(C(F)c2ccccc2)nc2c1cnn2C1CCOCC1` (racemic) [Example 12], the inhibition at 10 µM is 97% and the IC50 was 1 to 100 nM.
On the same counts, the results for `CC(c1ccccc1)c1nc2c(cnn2C2CCOCC2)c(=O)[nH]1` (racemic) [Example 14] are 96% and 101 to 1200 nM.
For `CC(C)(C)OC(=O)N1CCC(n2ncc3c(=O)[nH]c(Cc4ccccc4)nc32)C1` (racemic) [Example 15], in that order: 92% and 101 to 1200 nM.
For `CC(C)(C)OC(=O)N1CCC(n2ncc3c(=O)[nH]c(CC4CCC4)nc32)C1` (racemic) [Example 16], in that order: 86% and 101 to 1200 nM.
Turning to `CC(C)(C)OC(=O)N1CCCC(n2ncc3c(=O)[nH]c(CC4CCCC4)nc32)C1` (racemic) [Example 17], the inhibition at 10 µM amounted to 100% and the IC50 was in the range of 1 to 100 nM.
For `CC(C)(C)OC(=O)N1CCCC(n2ncc3c(=O)[nH]c(Cc4ccccc4)nc32)C1` (racemic) [Example 18], in that order: 99% and 1 to 100 nM.
On the same counts, the results for `CC(C)(C)OC(=O)N1CCCC(n2ncc3c(=O)[nH]c(Cc4ccccc4OC(F)(F)F)nc32)C1` (racemic) [Example 19] are 99% and 1 to 100 nM.
For `CC(C)(C)OC(=O)N1CCCC(n2ncc3c(=O)[nH]c(Cc4ccccn4)nc32)C1` (racemic) [Example 20], in that order: 98% and 1 to 100 nM.
Take `CCC(Cc1nc2c(cnn2C2CCCN(C(=O)OC(C)(C)C)C2)c(=O)[nH]1)C(F)(F)F` (racemic) [Example 21]: the inhibition at 10 µM was 97% and the IC50 was in the range of 101 to 1200 nM.
For `CC(C)(C)OC(=O)N1CCCC(n2ncc3c(=O)[nH]c(Cc4cccc(C(F)(F)F)c4)nc32)C1` (racemic) [Example 22], in that order: 98% and 1 to 100 nM.
On the same counts, the results for `CC(C)(C)OC(=O)N1CCCC(n2ncc3c(=O)[nH]c(Cc4ccccc4F)nc32)C1` (racemic) [Example 23] are 99% and 1 to 100 nM.
For `CCOc1ccccc1Cc1nc2c(cnn2C2CCCN(C(=O)OC(C)(C)C)C2)c(=O)[nH]1` (racemic) [Example 30], in that order: 100% and 1 to 100 nM.
For the compound `CC(C)Cc1nc2c(cnn2C2CCCN(C(=O)OC(C)(C)C)C2)c(=O)[nH]1` (racemic) [Example 31], the inhibition at 10 µM turned out to be 98% and the IC50 was 1 to 100 nM.
On the same counts, the results for `CC(C)(C)OC(=O)N1CCCC(n2ncc3c(=O)[nH]c(CC4CCC4)nc32)C1` (racemic) [Example 32] are 100% and 1 to 100 nM.
In the case of `COc1ccc(C2CCCCC2Cc2nc3c(cnn3C3CCOCC3)c(=O)[nH]2)cn1` (racemic) [Example 40-4], the inhibition at 10 µM was determined as 92% and the 50% inhibitory concentration (IC50) was in the range of 101 to 1200 nM.
On the same counts, the results for `O=c1[nH]c(CC2CCCO2)nc2c1cnn2C1CCOCC1` (racemic) [Example 42] are 92% and 101 to 1200 nM.
Turning to `CC(Cc1nc2c(cnn2C2CCOCC2)c(=O)[nH]1)C(F)(F)F` (racemic) [Example 46], the inhibition at 10 µM is 100% and the IC50 lay in the range of 1 to 100 nM.
For `CCC(Cc1nc2c(cnn2C2CCOCC2)c(=O)[nH]1)C(F)(F)F` (racemic) [Example 48], in that order: 96% and 1 to 100 nM.
On the same counts, the results for `O=c1[nH]c(CC2CCCC2)nc2c1cnn2C1CCOC1` (racemic) [Example 69] are 99% and 1 to 100 nM.
For `O=c1[nH]c(Cc2ccccc2OC(F)(F)F)nc2c1cnn2C1CCOC1` (racemic) [Example 70], in that order: 99% and 1 to 100 nM.
Consider `O=c1[nH]c(Cc2ccc(F)c(Cl)c2)nc2c1cnn2C1CCOC1` (racemic) [Example 71], for which the inhibition at 10 µM was 99% and the IC50 fell in the range of 1 to 100 nM.
On to `O=c1[nH]c(CC2CCC2)nc2c1cnn2C1CCOC1` (racemic) [Example 73], for which the inhibition at 10 µM was 97% and the IC50 lay in the range of 1 to 100 nM.
For `CC(C)Cc1nc2c(cnn2C2CCOC2)c(=O)[nH]1` (racemic) [Example 74], in that order: 95% and 1 to 100 nM.
On the same counts, the results for `O=c1[nH]c(CC2CCCCC2)nc2c1cnn2C1CCOC1` (racemic) [Example 75] are 98% and 1 to 100 nM.
Turning to `CCC(CC)Cc1nc2c(cnn2C2CCOC2)c(=O)[nH]1` (racemic) [Example 76], the inhibition at 10 µM amounted to 98% and the IC50 lay in the range of 1 to 100 nM.
On the same counts, the results for `O=c1[nH]c(Cc2cccnc2)nc2c1cnn2C1CCOC1` (racemic) [Example 78] are 99% and 101 to 1200 nM.
For `O=c1[nH]c(Cc2ccc(F)cc2)nc2c1cnn2C1CCOC1` (racemic) [Example 79], in that order: 99% and 1 to 100 nM.
On the same counts, the results for `O=c1[nH]c(CC2CC2)nc2c1cnn2C1CCOC1` (racemic) [Example 80] are 94% and 1 to 100 nM.
For `CCOc1ccccc1Cc1nc2c(cnn2C2CCOC2)c(=O)[nH]1` (racemic) [Example 82], the inhibition at 10 µM came to 100% and the IC50 was 1 to 100 nM.
For `COc1ccccc1Cc1nc2c(cnn2C2CCOC2)c(=O)[nH]1` (racemic) [Example 83], in that order: 96% and 1 to 100 nM.
On the same counts, the results for `O=c1[nH]c(Cc2cccc(C(F)(F)F)c2)nc2c1cnn2C1CCOC1` (racemic) [Example 85] are 99% and 1 to 100 nM.
On the same counts, the results for `O=c1[nH]c(Cc2ccccc2C(F)(F)F)nc2c1cnn2C1CCOC1` (racemic) [Example 86] are 95% and 101 to 1200 nM.
As to `Cc1cccnc1Cc1nc2c(cnn2C2CCOC2)c(=O)[nH]1` (racemic) [Example 87], the inhibition at 10 µM is 86% and the IC50 lay within 101 to 1200 nM.
On the same counts, the results for `N#Cc1ccccc1Cc1nc2c(cnn2C2CCOC2)c(=O)[nH]1` (racemic) [Example 88] are 96% and 1 to 100 nM.
For `N#Cc1cccc(Cc2nc3c(cnn3C3CCOC3)c(=O)[nH]2)c1` (racemic) [Example 89], in that order: 95% and 101 to 1200 nM.
Turning to `O=c1[nH]c(CC2CCCC2)nc2c1cnn2C1CCCOC1` (racemic) [Example 90], the inhibition at 10 µM was 100% and the IC50 lay within 1 to 100 nM.
For `O=c1[nH]c(Cc2ccccc2OC(F)(F)F)nc2c1cnn2C1CCCOC1` (racemic) [Example 91], in that order: 99% and 1 to 100 nM.
Regarding `CC(C)Cc1nc2c(cnn2C2CCCOC2)c(=O)[nH]1` (racemic) [Example 92], the inhibition at 10 µM was 98% and the IC50 fell in the range of 1 to 100 nM.
For `CCOc1ccccc1Cc1nc2c(cnn2C2CCCOC2)c(=O)[nH]1` (racemic) [Example 93], in that order: 97% and 1 to 100 nM.
For `O=c1[nH]c(Cc2ccccn2)nc2c1cnn2C1CCCOC1` (racemic) [Example 94], in that order: 96% and 101 to 1200 nM.
On the same counts, the results for `O=c1[nH]c(CC2CCC2)nc2c1cnn2C1CCCOC1` (racemic) [Example 96] are 99% and 1 to 100 nM.
In the case of `O=c1[nH]c(Cc2ccccc2C(F)(F)F)nc2c1cnn2C1CCCOC1` (racemic) [Example 97], the inhibition at 10 µM stood at 98% and the IC50 was in the range of 1 to 100 nM.
For `N#Cc1cccc(Cc2nc3c(cnn3C3CCCOC3)c(=O)[nH]2)c1` (racemic) [Example 98], in that order: 97% and 1 to 100 nM.
On the same counts, the results for `O=c1[nH]c(CC2CC2)nc2c1cnn2C1CCCOC1` (racemic) [Example 99] are 96% and 1 to 100 nM.
On the same counts, the results for `Cc1cccnc1Cc1nc2c(cnn2C2CCCOC2)c(=O)[nH]1` (racemic) [Example 100] are 93% and 101 to 1200 nM.
For the compound `O=c1[nH]c(Cc2ccc(F)cc2)nc2c1cnn2C1CCCOC1` (racemic) [Example 101], the inhibition at 10 µM was found to be 98% and the IC50 lay in the range of 1 to 100 nM.
